According to patent publication US20230321055A1, “PREVENTIVE TREATMENT OF MIGRAINE” (priority 2022, published 2023):

Test system: participants with CM and moderate to severe symptoms of depression
Assay: Same phase 3 study: analysis of participants with chronic migraine and moderate to severe symptoms of depression (PHQ-9 ≥10)
Format: in vivo, human
Parameters: MSQ v2.1 RFR, Change from baseline, mean / MSQ v2.1 RFP, Change from baseline, mean / MSQ v2.1 EF, Change from baseline, mean / MSQ v2.1 RFR, MMRM, LS mean change / MSQ v2.1 RFP, MMRM, LS mean change / MSQ v2.1 EF, MMRM, LS mean change / HIT-6, Change from baseline, mean / HIT-6, MMRM, LS mean change: scale not given here
Settings: 60 mg QD
Description: Depression is a common comorbidity in people with migraine and is a risk factor for transformation of EM to CM. Depressive symptoms predict increases in headache-related disability and poor health-related quality of life (HRQoL) in people with migraine. Thus, trial data analysis was used to evaluate the effect of atogepant in participants with CM and baseline symptoms of moderate to severe depression. Specifically, analysis of trial data evaluated the impact of atogepant on change in monthly migraine days, ≥50% and ≥75% responder rates, change in MSQ v2.1 domain scores, and PGIC in participants with CM and moderate to severe depression symptomology. PHQ-9 is a validated, screening and diagnostic tool designed to improve the recognition rate of depression and facilitates diagnosis and treatment. A cut-off score of ≥10 was used to identify participants with moderate or severe depressive symptoms, to determine eligibility and as a continuous outcome to measure changes in depression. As disclosed hereinabove, the MSQ v2.1 is a 14-item measure of health-related quality of life evaluating impacts attributed to migraine over the past 4 weeks and comprises three domains: Role Function-Restrictive (RFR), Role Function-Preventive (RFP), and Emotional Function (EF). PGIC is a single item used to measure the subject's impression of overall change in migraine since the first dose of study intervention. Findings for the atogepant 60 mg QD dose are presented herein. […] For the endpoint change from baseline in monthly migraine days and each MSQ v2.1 domain score, the comparison between treatment groups was analyzed using a restricted maximum likelihood-based mixed model for repeated measures (MMRM). Logistic regression models were used to analyze PGIC responder at week 12 and ≥50% or 75% responder rates across 12-week double-blind treatment period. ANCOVA model was used to analyze change from baseline in PHQ-9 score at week 12.
Analysis of trial data evaluated the impact of atogepant on headache day reduction, moderate/severe headache days, acute medication use day reduction, impacts of headache and migraine as evaluated by the HIT-6 and AIM-D, and symptoms of moderate to severe depression as measured by PHQ-9. A cut-off score of ≥10 was used to identify participants with moderate or severe depressive symptoms, to determine eligibility and as a continuous outcome to measure changes in depressive symptoms. Findings for the atogepant 60 mg QD dose are presented here. Similar results for the 30 BID dose (excluded for simplicity). For endpoints other than PHQ-9, the comparison between treatment groups were analyzed using a restricted maximum likelihood-based mixed model for repeated measures (MMRM). ANCOVA model was used to analyze PHQ-9 related endpoints.

[1] = across the 12-week treatment period, mITT, PHQ-9 ≥10 subgroup (n = 109)
[2] = mITT, PHQ-9 ≥10 subgroup (n = 109)
[3] = mITT, PHQ-9 ≥10 subgroup (n = 109), 12-week treatment period
[4] = week 12, mITT, PHQ-9 ≥10 subgroup (n = 109)

C[C@@H]1[C@H](c2c(F)ccc(F)c2F)C[C@H](NC(=O)c2cnc3c(c2)C[C@@]2(C3)C(=O)Nc3ncccc32)C(=O)N1CC(F)(F)F [Atogepant, (S)—N—((3S,5S,6R)-6-methyl-2-oxo-1-(2,2,2-trifluoroethyl)-5-(2,3,6-trifluorophenyl)piperidin-3-yl)-2′-oxo-1′,2′,5,7-tetrahydrospiro[cyclopenta[b]pyridine-6,3′-pyrrolo[2,3-b]pyridine]-3-carboxamide]
AIM-D PDA, Change from baseline, mean [1]: −16.09
AIM-D PDA, LSMD vs placebo [1]: −5.91
AIM-D PDA, MMRM, LS mean change [1]: −13.50
AIM-D PI, Change from baseline, mean [1]: −13.84
AIM-D PI, LSMD vs placebo [1]: −4.63
AIM-D PI, MMRM, LS mean change [1]: −11.68
AIM-D PDA, Months 1-3, mean [2]: 22.29
AIM-D PI, Months 1-3, mean [2]: 20.07
Monthly Acute Medication Use Days, Post-baseline (Month 1-3), mean [2]: 9.51
Monthly Headache Days, Post-baseline (Month 1-3), mean [2]: 15.24
Monthly Migraine Days, Post-baseline (Month 1-3), mean [2]: 12.90
Monthly Moderate/Severe Headache Days, Post-baseline (Month 1-3), mean [2]: 10.22
PHQ-9, Week 12, mean [2]: 8.81
≥50% Responders, Odds ratio vs placebo [2]: 3.70
≥75% Responders, Odds ratio vs placebo [2]: 13.64
Monthly Acute Medication Use Days, Change from baseline, mean [3]: −7.52
Monthly Acute Medication Use Days, LSMD vs placebo [3]: −3.53
Monthly Acute Medication Use Days, MMRM, LS mean change [3]: −6.57
Monthly Headache Days, Change from baseline, mean [3]: −6.94
Monthly Headache Days, LSMD vs placebo [3]: −2.86
Monthly Headache Days, MMRM, LS mean change [3]: −6.52
Monthly Migraine Days, Change from baseline, mean [3]: −7.23
Monthly Migraine Days, LSMD vs placebo [3]: −3.04
Monthly Migraine Days, MMRM, LS mean change [3]: −6.71
Monthly Moderate/Severe Headache Days, Change from baseline, mean [3]: −7.34
Monthly Moderate/Severe Headache Days, LSMD vs placebo [3]: −2.68
Monthly Moderate/Severe Headache Days, MMRM, LS mean change [3]: −6.77
≥50% Responders, Odds ratio vs placebo (mITT, PHQ-9 ≥10 subgroup (n = 109), listed as atogepant): 3.7
PGIC much better or very much better, OR vs placebo (week 12, PHQ-9 ≥10 subgroup): 2.52
HIT-6, Change from baseline, mean [4]: −8.73
HIT-6, LSMD vs placebo [4]: −3.18
HIT-6, MMRM, LS mean change [4]: −8.37
HIT-6, Post-baseline, mean [4]: 57.68
MSQ v2.1 EF, Change from baseline, mean [4]: 30.17
MSQ v2.1 EF, LSMD vs placebo [4]: 9.24
MSQ v2.1 EF, MMRM, LS mean change [4]: 28.19
MSQ v2.1 EF, Post-baseline, mean [4]: 70.79
MSQ v2.1 RFP, Change from baseline, mean [4]: 24.95
MSQ v2.1 RFP, LSMD vs placebo [4]: 8.89
MSQ v2.1 RFP, MMRM, LS mean change [4]: 22.91
MSQ v2.1 RFP, Post-baseline, mean [4]: 73.71
MSQ v2.1 RFR, Change from baseline, mean [4]: 28.04
MSQ v2.1 RFR, LSMD vs placebo [4]: 8.77
MSQ v2.1 RFR, MMRM, LS mean change [4]: 25.56
MSQ v2.1 RFR, Post-baseline, mean [4]: 61.53
PHQ-9, ANCOVA, LS mean change [4]: −5.11
PHQ-9, Change from baseline, mean [4]: −5.61
PHQ-9, LSMD vs placebo [4]: −1.38
